Experiments:
sEH [1] = biological target: T1, sEH (Homo sapiens, UniProt P34913); test: sEH inhibition, assay not specified; format: biochemical
T1 sequence (P34913 1-555): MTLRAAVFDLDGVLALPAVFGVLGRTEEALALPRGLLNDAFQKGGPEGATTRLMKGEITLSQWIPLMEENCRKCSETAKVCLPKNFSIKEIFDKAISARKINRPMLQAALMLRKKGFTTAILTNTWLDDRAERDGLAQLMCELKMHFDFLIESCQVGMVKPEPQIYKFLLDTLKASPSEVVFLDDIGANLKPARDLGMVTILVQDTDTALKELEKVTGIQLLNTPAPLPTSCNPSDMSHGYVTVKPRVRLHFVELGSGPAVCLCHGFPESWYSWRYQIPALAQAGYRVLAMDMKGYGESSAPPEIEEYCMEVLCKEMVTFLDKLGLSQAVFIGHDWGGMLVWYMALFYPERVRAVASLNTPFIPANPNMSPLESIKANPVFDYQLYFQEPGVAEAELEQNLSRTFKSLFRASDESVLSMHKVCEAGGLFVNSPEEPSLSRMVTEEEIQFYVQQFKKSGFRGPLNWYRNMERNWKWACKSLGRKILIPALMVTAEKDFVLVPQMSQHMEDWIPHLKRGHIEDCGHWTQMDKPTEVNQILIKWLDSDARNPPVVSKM
Text: (§1) (Both the 1- and the 2-adamantyl ureas have been tested and have about the same high activity as an inhibitor of sEH.) Thus, isomers of adamantyl dodecyl urea are preferred inhibitors. It is further expected that N,N′-dodecyl-cyclohexyl urea (DCU), and other inhibitors of sEH, and particularly dodecanoic acid ester derivatives of urea, are suitable for use in the methods of the invention.

[2] = Metabolic stability, method not given; format: in vitro ADME
Text: as §1

C57BL/6 mice [3] = test: PGD2-induced vasodilation/flushing, ear perfusion in mice; format: in vivo, mouse
Method: Mouse Model: C57BL/6 mice were obtained from Charles River Laboratories (location). sEHi knockout mice were generated at UC Davis using the C57BL/6 background [EnayetAllah, et al., J Biol. Chem. (2008) 283(52):36592-8]. For the experiments, mice were anesthetized using Nembutal (50 mg/kg) given by intraperitoneal (I.P.) injection. […]
(§2) Laser Doppler ear blood flow: The change in ear flow was measured using a laser doppler flowmeter (BLF 21, on loan from Transonic Systems, Inc., Ithaca, N.Y.). As described by Cheng et al [Proc Natl Acad Sci (2006) 103(17):6682-7] the flow probe was placed against the ventral aspect of the right ear of the anesthetized mouse. The laser doppler probe was fitted with a sleeve of 2 mm length plastic tubing and attached to a micromanipulator to standardize the depth of the tissue being measured. Blood flow was measured at 30 second intervals before and during exposure to compounds. Baseline blood flow was established by the average of measurements over 5 min prior to injection of drug or vehicle. Data were analyzed as a fraction of baseline.

C57BL/6 mice [4] = test: Niacin-induced flushing: laser Doppler ear blood flow in anesthetized mice; format: in vivo, mouse; settings: for peak ear tissue perfusion after niacin (composite, FIG. 9): i.p. 30 minutes before niacin 30 mg/kg, TPAU 0.01-1 mg/kg, others 4 mg/kg
Method: For the experiments, mice were anesthetized using Nembutal (50 mg/kg) given by intraperitoneal (I.P.) injection. […]
as §2, with “As described by Cheng et al [Proc Natl Acad Sci (2006) 103(17):6682-7] the flow probe was placed against the ventral aspect of the right ear of the anesthetized mouse.” left out
Mice were anesthetized with Nembutal™ (50 mg/kg) and ear cutaneous perfusion was measured as explained above. Animals were then injected with a niacin solution (30 mg/kg, in physiological saline) and response (% tissue perfusion) after 3 minutes measured.

C57BL/6 mice [5] = test: Eicosanoid analysis by LC-MS/MS in plasma/serum of mice given niacin +/- sEHi; format: in vivo, mouse
C57BL/6 mice [6] = test: Eicosanoid analysis by LC-MS in ear tissue of mice given niacin +/- sEHi; format: in vivo, mouse; settings: for products of the 5-lipoxygenase pathway in ear tissue: niacin 30 mg/kg subcutaneously, TPAU 3 mg/kg pre-treatment, FIG. 10
Method: Samples were spiked with a suite of odd chain length analogs (surrogates) then solvent extracted and partially purified by passing through a solid phase (SP) extraction column using Oasis HLB cartridges. The loaded column was washed with 2 mL 2.5 mM H2PO4+10% methanol and dried under vacuum. Target analytes were eluted with 2 mL of ethyl acetate. The collected extracts were evaporated to dryness under nitrogen, re-dissolved in a final volume of 100 μL with methanol containing deuterated isomers of internal standards including prostaglandins, thromboxanes, epoxides, diols, of arachidonic acid, which allows accurate surrogate recovery calculations and stored at −20° C. until analysis. A 10-20 μL aliquot of each sample was separated by reversed phase HPLC chromatography on a 150 mm×2 mm I.D. 5 μm particle size C18 column using a gradient of water-0.1% acetic acid and 89:11 acetonitrile/methanol (v/v)-0.1% acetic acid. […] The system was calibrated with a minimum of five calibration solutions containing analytical targets at concentrations ranging from 1 to 1000 nM. The analysis of each sample was repeated three times. Calibration check solutions were analyzed at a minimum frequency of 10 hours to ensure stability of the analytical calibration throughout a given analysis.
As the flushing effect of niacin is essentially local rather than systemic, the effect of niacin +/−sEHi on ear tissue prostaglandins were also examined by LC-MS.
Products of the 5-lipoxygenase pathway are generally considered pro-inflammatory.

[7] = 325 mg of aspirin, Dunn et al 1995; cited from earlier work
COX-2 / COX-1 = settings: cited from earlier work
sEH [8] = biological target: T1, sEH; test: Inhibition of recombinant human sEH; format: biochemical
mouse ear = test: Capsaicin applied to the mouse ear: tissue perfusion; format: in vivo
Text: Tachyphylaxis to the flushing effect of niacin is well known, although the mechanism has not been elucidated. […] Tachyphylaxis to the vasodilatory effect of capsaicin is likely mediated by repetitive activation of transient receptor potential channels, in particular TRPV1, with resultant desensitization and internalization. See, Fan et al., J Biol Chem (2009) 284:27884-91; Myers, et al., Neuron (2007) 54:847-50. […] Subsequently, mice were exposed to capsaicin daily for 3 days (treated topically, 4 times per day), resulting in abolition of the acute vasodilatory response (i.e. tachyphylaxis to capsaicin). […] Although the exact sequence of events following niacin exposure is not clear it seems that niacin activates a number of targets simultaneously.

recombinant murine sEH = biological target: T2, recombinant murine sEH (Mus musculus, UniProt P34914); test: Inhibition of recombinant murine sEH; format: biochemical
T2 sequence (P34914 1-554): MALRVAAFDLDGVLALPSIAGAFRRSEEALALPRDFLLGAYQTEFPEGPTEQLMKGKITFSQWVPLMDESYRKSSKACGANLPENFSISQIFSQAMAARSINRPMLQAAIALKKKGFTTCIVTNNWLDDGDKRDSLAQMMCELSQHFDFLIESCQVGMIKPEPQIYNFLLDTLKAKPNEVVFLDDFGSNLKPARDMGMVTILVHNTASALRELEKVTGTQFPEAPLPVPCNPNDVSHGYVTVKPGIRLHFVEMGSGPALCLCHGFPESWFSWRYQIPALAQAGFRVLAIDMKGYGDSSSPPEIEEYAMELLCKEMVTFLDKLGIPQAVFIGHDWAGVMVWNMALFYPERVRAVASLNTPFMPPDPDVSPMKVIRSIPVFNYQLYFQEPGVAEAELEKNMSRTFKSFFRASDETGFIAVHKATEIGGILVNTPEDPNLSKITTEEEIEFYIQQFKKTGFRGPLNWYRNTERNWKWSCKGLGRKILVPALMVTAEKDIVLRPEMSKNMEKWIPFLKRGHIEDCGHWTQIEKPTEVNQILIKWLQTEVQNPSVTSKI

[9] = niacin 30 mg/kg, wild type mice, FIG. 6

CCCCCCCCCCCCNC(=O)NC12CC3CC(CC(C3)C1)C2 [ADU, N-Adamantyl-N′-dodecyl urea]
activity on sEH (sEH [1]): particularly high activity on sEH | metabolic stability [2]: metabolically stable

CC(C)(C)c1ccc(/C=C/C(=O)Nc2ccc3c(c2)OCCO3)cc1 [AMG9810]
flushing response to PGD2 (C57BL/6 mice [3]; AMG9810 10 mg/kg IP, FIG. 12): blunted the biologic response to PGD2 | flushing response to niacin (C57BL/6 mice [4]; AMG9810 10 mg/kg IP, in the animal tested): abolished the flushing response to niacin

O=C(NC1CCN(C(=O)C(F)(F)F)CC1)NC12CC3CC(CC(C3)C1)C2 [TPAU, N-(1-(2,2,2-trifluoroethanoyl)piperidin-4-yl)-N′-(adamant-1-yl)urea]
PGD2 levels with niacin + sEHi (C57BL/6 mice [5]; TPAU 3 mg/kg, FIG. 5): did not result in the expected reduction in PGD2 | niacin-induced reduction of plasma EETs and ratio EETs/DHETs (C57BL/6 mice [5]; sEHi TPAU 3 mg/kg, niacin 30 mg/kg, FIG. 1-3): counters this reduction in EETs | products of the 5-lipoxygenase pathway in ear tissue (C57BL/6 mice [6]): limited or abrogated niacin-induced increases in products of the 5-lipoxygenase pathway | PGD2-induced increase in perfusion (C57BL/6 mice [3]; TPAU pretreatment at a concentration sufficient to inhibit niacin-induced perfusion increase, FIG. 4): did not limit the increase in perfusion with administration of PGD2 | peak perfusion after niacin (C57BL/6 mice [4]; TPAU 0.05 mg/kg to 1 mg/kg, FIG. 8): significant reduction in peak perfusion | flushing (% tissue perfusion 3 minutes after niacin) (C57BL/6 mice [4]; TPAU 0.01 to 1 mg/kg, 1 hour prior to niacin 30 mg/kg, n=4-6): dose-dependently reduced flushing | peak ear tissue perfusion after niacin (composite, FIG. 9) (C57BL/6 mice [4]): significantly reduced peak ear tissue perfusion | dose giving total inhibition of flushing (C57BL/6 mice [4]; mice, niacin 30 mg/kg): 0.3 mg/kg | Ki50 for inhibition of niacin-induced flushing (C57BL/6 mice [4]; mice, niacin 30 mg/kg, TPAU pre-treatment): approximately 0.01 mg/kg

CC(=O)Oc1ccccc1C(=O)O [aspirin]
peak ear tissue perfusion after niacin (composite, FIG. 9) (C57BL/6 mice [4]): significantly reduced peak ear tissue perfusion | effectiveness against niacin flushing [7]: more effective than 165 mg of aspirin or 200 mg ibuprofen | COX-2 (IC50)/COX-1 (IC50) ratio (COX-2 / COX-1): 0.32

COc1cc(CNC(=O)CCCC/C=C/C(C)C)ccc1O [capsaicin]
IC50 (sEH [8]): 1.5 µM | ear tissue perfusion after topical capsaicin (mouse ear): time-dependent increase in tissue perfusion | vasodilatory response to niacin after capsaicin tachyphylaxis (C57BL/6 mice [4]; capsaicin topically 4 times per day for 3 days, FIG. 11): blunted vasodilatory response | flushing response to niacin after capsaicin tachyphylaxis plus acute topical capsaicin (C57BL/6 mice [4]; repeated capsaicin then acute topical capsaicin prior to niacin injection): abolished | IC50 (recombinant murine sEH): 1.5 µM

COc1ccc2c(c1)c(CC(=O)O)c(C)n2C(=O)c1ccc(Cl)cc1 [indomethacin]
COX-2 (IC50)/COX-1 (IC50) ratio (COX-2 / COX-1): 33

O=C(O)c1cccnc1 [niacin, pyridine-3-carboxylic acid]
plasma levels of EETs (total EETs or ratio EETs/DHETs) (C57BL/6 mice [5]; niacin 30 mg/kg subcutaneous alone): reduced plasma levels of EETs | PGE2 levels in serum (C57BL/6 mice [5]; niacin alone): without altering PGE2 levels | increase of PGD2 levels in serum (C57BL/6 mice [5]; niacin alone): approximately 100% | ear tissue PGD2 level (C57BL/6 mice [6]; LC-MS, unit not given): 33214 | products of the 5-lipoxygenase pathway in ear tissue (C57BL/6 mice [6]): increased products of the 5-lipoxygenase pathway | increase of ear tissue PGD2 (C57BL/6 mice [6]; niacin vs control, P=0.09): 21% | increase in ear perfusion (C57BL/6 mice [4]; [9]): ~400% | time of peak ear perfusion after injection (C57BL/6 mice [4]; [9]): approximately 4 minutes

CNC(=O)c1cc(Oc2ccc(NC(=O)Nc3ccc(Cl)c(C(F)(F)F)c3)cc2)ccn1 [sorafenib]
peak ear tissue perfusion after niacin (composite, FIG. 9) (C57BL/6 mice [4]): significantly reduced peak ear tissue perfusion
